Laboratory results as given in the supplement of paper PMC9663587.

Columns and labels:
Test in all cases: area over the GR curve, 72 h; higher = more effect;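 further: Dye Drop or Deep Dye Drop imaging of viable cells in 384-well plates (Hoechst nuclei, LIVE/DEAD dye), nine half-log doses, GR normalized to DMSO controls and time-zero plates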
CAL851 = system: CAL851
PDX1328 = system: PDX1328
MDAMB330 = system: MDAMB330
HCC38 = system: HCC38
CAL51 = system: CAL51
SUM149 = system: SUM149
BT20 = system: BT20
BT549 = system: BT549
CAMA1 = system: CAMA1
HCC1954 = system: HCC1954

SMILES: COc1ccc2c(c1)[C@]1(C[C@H]1c1ccc3c(/C=C/c4ccc(CN5C[C@@H](C)O[C@@H](C)C5)cc4)n[nH]c3c1)C(=O)N2
- area over the GR curve (CAL851): 0.761 GR
- area over the GR curve (PDX1328): 0.553 GR
- area over the GR curve (MDAMB330): 0.438 GR
- area over the GR curve (HCC38): 0.852 GR
- area over the GR curve (CAL51): 0.562 GR
- area over the GR curve (SUM149): 0.672 GR
- area over the GR curve (BT20): 1.07 GR
- area over the GR curve (BT549): 0.889 GR
- area over the GR curve (CAMA1): 0.587 GR
- area over the GR curve (HCC1954): 0.995 GR

SMILES: COc1cccc(OCCCN)c1-c1cc(Nc2cnc(C#N)cn2)n[nH]1
- area over the GR curve (CAL851): 0.608 GR
- area over the GR curve (PDX1328): 0.442 GR
- area over the GR curve (MDAMB330): 0.718 GR
- area over the GR curve (HCC38): 0.858 GR
- area over the GR curve (CAL51): 0.528 GR
- area over the GR curve (SUM149): 0.793 GR
- area over the GR curve (BT20): 0.973 GR
- area over the GR curve (BT549): 1.4 GR
- area over the GR curve (CAMA1): 0.483 GR
- area over the GR curve (HCC1954): 1.21 GR

SMILES: CC(=O)Nc1cccc(-n2c(=O)n(C3CC3)c(=O)c3c(Nc4ccc(I)cc4F)n(C)c(=O)c(C)c32)c1 (max 1 µM)
- area over the GR curve (CAL851): 0.41 GR
- area over the GR curve (PDX1328): 0.166 GR
- area over the GR curve (MDAMB330): 0.218 GR
- area over the GR curve (HCC38): 0.207 GR
- area over the GR curve (CAL51): 0.0662 GR
- area over the GR curve (SUM149): 0.39 GR
- area over the GR curve (BT20): 0.176 GR
- area over the GR curve (BT549): 0.129 GR
- area over the GR curve (CAMA1): 0.169 GR
- area over the GR curve (HCC1954): 0.401 GR

SMILES: CCc1cnn2c(NCc3ccc[n+]([O-])c3)cc(N3CCCC[C@H]3CCO)nc12 (max 1 µM)
- area over the GR curve (CAL851): 0.686 GR
- area over the GR curve (PDX1328): 0.656 GR
- area over the GR curve (MDAMB330): 0.101 GR
- area over the GR curve (HCC38): 0.62 GR
- area over the GR curve (CAL51): 0.599 GR
- area over the GR curve (SUM149): 0.687 GR
- area over the GR curve (BT20): 0.672 GR
- area over the GR curve (BT549): 0.591 GR
- area over the GR curve (CAMA1): 0.606 GR
- area over the GR curve (HCC1954): 0.629 GR

SMILES: CC(=O)c1c(C)c2cnc(Nc3ccc(N4CCNCC4)cn3)nc2n(C2CCCC2)c1=O (max 3.162 µM)
- area over the GR curve (CAL851): -0.0843 GR
- area over the GR curve (PDX1328): 0.252 GR
- area over the GR curve (MDAMB330): 0.47 GR
- area over the GR curve (HCC38): 0.371 GR
- area over the GR curve (CAL51): 0.25 GR
- area over the GR curve (SUM149): 0.19 GR
- area over the GR curve (BT20): 0.39 GR
- area over the GR curve (BT549): -0.0495 GR
- area over the GR curve (CAMA1): 0.353 GR
- area over the GR curve (HCC1954): 0.176 GR

SMILES: CCc1cncnc1N1CCN(Cc2nc3ccc(C(F)(F)F)cc3[nH]2)CC1 (max 10 µM)
- area over the GR curve (CAL851): -0.0315 GR
- area over the GR curve (PDX1328): 0.0319 GR
- area over the GR curve (MDAMB330): 0.0392 GR
- area over the GR curve (HCC38): -0.0304 GR
- area over the GR curve (CAL51): 0.0491 GR
- area over the GR curve (SUM149): 0.0207 GR
- area over the GR curve (BT20): -0.0022 GR
- area over the GR curve (BT549): -0.0132 GR
- area over the GR curve (CAMA1): 0.0582 GR
- area over the GR curve (HCC1954): -0.0456 GR

SMILES: CCCCOc1c(C(=O)c2c(F)cc(C)cc2F)c[nH]c2nncc1-2 (max 10 µM)
- area over the GR curve (CAL851): 0.672 GR
- area over the GR curve (PDX1328): 0.142 GR
- area over the GR curve (MDAMB330): 0.372 GR
- area over the GR curve (HCC38): 0.768 GR
- area over the GR curve (CAL51): 0.226 GR
- area over the GR curve (SUM149): 0.637 GR
- area over the GR curve (BT20): 0.84 GR
- area over the GR curve (BT549): 0.94 GR
- area over the GR curve (CAMA1): 0.842 GR
- area over the GR curve (HCC1954): 0.835 GR

SMILES: CCN1CCN(Cc2ccc(Nc3ncc(F)c(-c4cc(F)c5nc(C)n(C(C)C)c5c4)n3)nc2)CC1 (max 10 µM)
- area over the GR curve (CAL851): 0.228 GR
- area over the GR curve (PDX1328): 0.676 GR
- area over the GR curve (MDAMB330): 0.722 GR
- area over the GR curve (HCC38): 0.64 GR
- area over the GR curve (CAL51): 0.578 GR
- area over the GR curve (SUM149): 0.344 GR
- area over the GR curve (BT20): 0.569 GR
- area over the GR curve (BT549): 0.127 GR
- area over the GR curve (CAMA1): 0.613 GR
- area over the GR curve (HCC1954): 0.458 GR

SMILES: CNc1nc(-c2ccc3c(N)n[nH]c3c2)cc(N2C[C@@H](C(=O)NC3CCCCC3)CC[C@H]2C)n1 (max 10 µM)
- area over the GR curve (CAL851): 0.201 GR
- area over the GR curve (PDX1328): 0.136 GR
- area over the GR curve (MDAMB330): 0.498 GR
- area over the GR curve (HCC38): 0.0564 GR
- area over the GR curve (CAL51): 0.0516 GR
- area over the GR curve (SUM149): 0.0419 GR
- area over the GR curve (BT20): 0.0701 GR
- area over the GR curve (BT549): 0.0789 GR
- area over the GR curve (CAMA1): -0.0192 GR
- area over the GR curve (HCC1954): 0.0806 GR

SMILES: CO[C@@H](C)Cn1c(=O)n(C)c2cnc3ccc(-c4cncc(C(C)(C)O)c4)cc3c21 (max 10 µM)
- area over the GR curve (CAL851): 0.771 GR
- area over the GR curve (PDX1328): 0.72 GR
- area over the GR curve (MDAMB330): 1.31 GR
- area over the GR curve (HCC38): 0.664 GR
- area over the GR curve (CAL51): 0.631 GR
- area over the GR curve (SUM149): 0.286 GR
- area over the GR curve (BT20): 0.768 GR
- area over the GR curve (BT549): 0.765 GR
- area over the GR curve (CAMA1): 0.972 GR
- area over the GR curve (HCC1954): 0.822 GR

SMILES: Cc1nn(C)c(COc2ccc(N3CCN(S(=O)(=O)N(C)C)CC3)cc2)c1-c1cccc2c(CCCOc3cccc4ccccc34)c(C(=O)O)n(CCN3CCOCC3)c12 (max 10 µM)
- area over the GR curve (CAL851): 0.0108 GR
- area over the GR curve (PDX1328): -0.0317 GR
- area over the GR curve (MDAMB330): 0.0479 GR
- area over the GR curve (HCC38): 0.0151 GR
- area over the GR curve (CAL51): 0.0073 GR
- area over the GR curve (SUM149): 0.0361 GR
- area over the GR curve (BT20): -0.0396 GR
- area over the GR curve (BT549): 0.0083 GR
- area over the GR curve (CAMA1): 0.0026 GR
- area over the GR curve (HCC1954): -0.0351 GR

SMILES: CN(C)CC[C@H](CSc1ccccc1)Nc1ccc(S(=O)(=O)NC(=O)c2ccc(N3CCN(Cc4ccccc4-c4ccc(Cl)cc4)CC3)cc2)cc1[N+](=O)[O-] [ABT-737] (max 10 µM)
- area over the GR curve (CAL851): -0.0516 GR
- area over the GR curve (PDX1328): 0.304 GR
- area over the GR curve (MDAMB330): 0.189 GR
- area over the GR curve (HCC38): 0.296 GR
- area over the GR curve (CAL51): 0.0125 GR
- area over the GR curve (SUM149): 0.142 GR
- area over the GR curve (BT20): 0.0208 GR
- area over the GR curve (BT549): -0.0258 GR
- area over the GR curve (CAMA1): 0.0008 GR
- area over the GR curve (HCC1954): 0.027 GR

SMILES: C=CCn1c(=O)c2cnc(Nc3ccc(N4CCN(C)CC4)cc3)nc2n1-c1cccc(C(C)(C)O)n1 [AZD1775] (max 10 µM)
- area over the GR curve (CAL851): 0.491 GR
- area over the GR curve (PDX1328): 0.806 GR
- area over the GR curve (MDAMB330): 0.655 GR
- area over the GR curve (HCC38): 0.961 GR
- area over the GR curve (CAL51): 0.461 GR
- area over the GR curve (SUM149): 0.614 GR
- area over the GR curve (BT20): 0.198 GR
- area over the GR curve (BT549): 0.446 GR
- area over the GR curve (CAMA1): 0.0364 GR
- area over the GR curve (HCC1954): 0.295 GR

SMILES: CNC(=O)c1cccc(-c2ccc3c(N4CCOC[C@@H]4C)nc(N4CCOC[C@@H]4C)nc3n2)c1 [AZD2014] (max 10 µM)
- area over the GR curve (CAL851): 0.637 GR
- area over the GR curve (PDX1328): 0.706 GR
- area over the GR curve (MDAMB330): 1.38 GR
- area over the GR curve (HCC38): 0.418 GR
- area over the GR curve (CAL51): 0.485 GR
- area over the GR curve (SUM149): 0.385 GR
- area over the GR curve (BT20): 0.484 GR
- area over the GR curve (BT549): 0.491 GR
- area over the GR curve (CAMA1): 0.873 GR
- area over the GR curve (HCC1954): 0.568 GR

SMILES: NC1(C(=O)N[C@@H](CCO)c2ccc(Cl)cc2)CCN(c2nc[nH]c3nccc2-3)CC1 [AZD5363] (max 10 µM)
- area over the GR curve (CAL851): 0.106 GR
- area over the GR curve (PDX1328): 0.0959 GR
- area over the GR curve (MDAMB330): 0.52 GR
- area over the GR curve (HCC38): 0.0939 GR
- area over the GR curve (CAL51): 0.161 GR
- area over the GR curve (SUM149): 0.109 GR
- area over the GR curve (BT20): 0.298 GR
- area over the GR curve (BT549): 0.211 GR
- area over the GR curve (CAMA1): 0.583 GR
- area over the GR curve (HCC1954): 0.23 GR

SMILES: C[C@@H]1COCCN1c1cc(C2([S@](C)(=N)=O)CC2)nc(-c2cc[nH]c3nccc2-3)n1 [AZD6738] (max 10 µM)
- area over the GR curve (CAL851): 0.071 GR
- area over the GR curve (PDX1328): 0.172 GR
- area over the GR curve (MDAMB330): 0.0364 GR
- area over the GR curve (HCC38): 0.247 GR
- area over the GR curve (CAL51): 0.103 GR
- area over the GR curve (SUM149): 0.117 GR
- area over the GR curve (BT20): -0.0437 GR
- area over the GR curve (BT549): 0.0821 GR
- area over the GR curve (CAMA1): -0.0516 GR
- area over the GR curve (HCC1954): -0.0136 GR

SMILES: NC(=O)Nc1cc(-c2cccc(F)c2)sc1C(=O)N[C@H]1CCCNC1 [AZD7762] (max 10 µM)
- area over the GR curve (CAL851): 0.648 GR
- area over the GR curve (PDX1328): 0.828 GR
- area over the GR curve (MDAMB330): 0.704 GR
- area over the GR curve (HCC38): 0.916 GR
- area over the GR curve (CAL51): 0.714 GR
- area over the GR curve (SUM149): 0.657 GR
- area over the GR curve (BT20): 0.197 GR
- area over the GR curve (BT549): 0.601 GR
- area over the GR curve (CAMA1): 0.418 GR
- area over the GR curve (HCC1954): 0.515 GR

SMILES: Cc1nc(NC(=O)N2CCC[C@H]2C(N)=O)sc1-c1ccnc(C(C)(C)C(F)(F)F)c1 [Alpelisib/BYL719] (max 10 µM)
- area over the GR curve (CAL851): 0.194 GR
- area over the GR curve (PDX1328): 0.241 GR
- area over the GR curve (MDAMB330): 0.279 GR
- area over the GR curve (HCC38): 0.0391 GR
- area over the GR curve (CAL51): 0.149 GR
- area over the GR curve (SUM149): 0.0367 GR
- area over the GR curve (BT20): 0.201 GR
- area over the GR curve (BT549): 0.0322 GR
- area over the GR curve (CAMA1): 0.0106 GR
- area over the GR curve (HCC1954): 0.264 GR
